From US5691348A, “Pyridyl imidazole derivatives and processes for the preparation thereof” (Daewoo Electronics Co., Ltd., priority 1994, dated 1997)
Blank lines part the entries; values can stand above or below the compound they belong to.

Assays:
[1] = system: renal hypertensive rat; assay: Blood pressure lowering effect with respect to dose (renal hypertensive rats); format: in vivo, Sprague-Dawley rat; settings: oral
From the text: (§1) To induce renal hypertension, left renal artery of 4 week-old male Sprague-Dawley rat (from The Korea Research Institute of Chemical Technology) was ligated. The rat was anesthetized with ether and the surgical region on the left abdomen of the rat was shaved, disinfected, and then incised about 1 cm vertically. The renal artery near abdominal aorta was isolated carefully from surrounding tissues and veins, and then ligated completely with a suture (4/0 sterile surgical silk). The muscular strata and skin of the surgical area were sutured with a suture (4/0 sterile surgical silk). The surgical region was disinfected to prevent infection and thereafter, 200 to 250 mg/kg/day of cephazolin sodium was injected intramuscularly for 2 days. 6 to 8 days after the ligation, rats showing systolic pressure of more than 180 mmHg were selected for renal hypertension test. The blood pressure was determined by a tail-cuff method from the tail under unanesthetized condition (Gerold, M. et al., Arzneimittel-Forsch., 18, 1285(1968)).
(§2) Each of the compounds to be tested was administered intravenously or orally into the renal hypertensive rat. The blood pressure of the rat was determined by direct method (Chiu, A. T. et al., J. Pharmacol. Exp. Ther., 250, 867(1989)) using a catheter. The rat was anesthetized with ketamine hydrochloride (125 mg/kg, i.p.) and a catheter was filled with saline and inserted into a carotid artery and […]. The surgical area was sutured with a metal clip. The rat was relaxed at least 3 hours and the catheter in the carotid artery was adapted to an isotec pressure transducer to determine the blood pressure and heart rate with a physiograph (Linearcorder WR3310). After the blood pressure was stabilized, the test compound was administered intravenously or orally. For intravenous administration, the administered volume and washing volume were 1.0 ml/kg and 0.2 ml, respectively. The blood pressure and heart rate were measured in regular intervals up to 24 hours after the administration of the test compound and compared with those measured after the administration of the control compound Losartan.
(§3) The test compound was dissolved in 0.05N KOH for intravenous administration and suspended in Tween 80 for oral administration.
The present compounds, Losartan(Dup 753) and the Merck compound were administrated orally to rats in 10, 3 and 1 mg/kg under the same condition as in (ii) and the blood pressure lowering effect was determined.

[2] = system: renal hypertensive rat; assay: Blood pressure lowering effect in renal hypertension; format: in vivo, Sprague-Dawley rat; settings: Amount 3 mg; intravenous or oral (not specified)
From the text: as §1, §2, §3

[3] = system: unanesthetized dogs; assay: Maximum blood pressure lowering effect in unanesthetized dogs at different amounts; format: in vivo, dog
Experimental: (§4) A number of dog was fed freely in a feeding room and those weighing 7 to 12 kg in good health were selected regardless of their gender.
(§5) The test dog was anesthetized with 30 mg/kg of pentobarbital sodium by intravenous injection and the left femoral artery and femoral vein were separated carefully. Silicone catheter, specially prepared and filled with saline treated with heparin (1,000 IU/ml), was cannulated into the blood vessels. After the surgery, the dog was constrained to measure the blood pressure continuously with Gould 2000 physiograph adapted to a Grass P23XL pressure transducer; and the heart rate was monitored with ECG/Biotacho amplifier. The dog was tested at least 2 days after the surgery.
(§6) 10 mg/kg of furosemide was injected intramuscularly 18 hours (in case of intravenous injection, 2 hours) before the beginning of the test (administration of the test compound) to improve the activity of renin in blood plasma. After the injection of furosemide, neither food nor water was provided. The test compound was suspended in Tween 80 and administered in an amount of 20 mg/kg orally. The blood pressure and heart rate were measured up to 8 hours after the administration of each test compound.
The maximum blood pressure lowering effect of the present compounds and the control compounds were determined in different amounts of administration using the same method as (i) and the results are given in Table 4.

[4] = system: angiotensin II receptor; assay: Angiotensin II receptor binding assay ([3H] angiotensin II); parameters: species or system rat (Sprague-Dawley adrenal cortex/medulla; Wistar liver); settings: 25° C., 60 minutes, test concentration not given
Experimental: 1. Angiotensin II receptor binding assay
In accordance with the procedure disclosed in Chiu, A. T. et al., Eur. J. Pharm., 157, 13(1981), a ligand marked with a radioisotope was reacted with an angiotensin II receptor and the reactant was filtered with a glass fiber to remove unreacted ligand. After washing the filter, the amount of the remaining isotope was measured to determine the binding activity of the ligand, as described below in detail.
Sprague-Dawley rats and Wistar rats of 250 to 350 g (from The Korea Research Institute of Chemical Technology) were tested and the test procedures were carried out at 4° C., unless otherwise specified. Adrenal gland was separated from the Sprague-Dawley rats (liver, in the case of Wistar rats) into cortex and medulla. The separated adrenal cortex and medulla were washed with a sucrose buffer solution (0.2M sucrose, 1 mM EDTA, 10 mM Tris, Ph 7.2) and homogenized in the same buffer solution by using a Teflon pestle and a Brinkmann homogenizer. The homogenates were centrifuged at 3,000× g for 10 minutes to remove precipitates and further centrifuged at 12,000× g for 13 minutes. The final supernatants were centrifuged at 102,000× g for 1 hour to obtain precipitates, which were washed with a Tris buffer solution (50 mM Tris, 5 mM MgCl2, pH 7.2) and recentrifuged at 102,000× g for 1 hour. The resulting precipitates were immediately processed at the following step or stored at -70° C.
The precipitates were suspended in a Tris buffer solution. The amount of protein was determined by using a Bio-Rad DC protein analyzing kit and the protein concentration was adjusted to the amounts of: 0.2 to 0.3 mg/ml (Sprague-Dawley rat: adrenal cortex), 1.5 to 2.0 mg/ml (Sprague-Dawley rat: adrenal medulla), and 1.5 to 2.0 mg/ml (Wistar rat: liver). To the suspension, bovine serum albumin(BSA) was added to a concentration of 0.25 wt % and the resultant was immediately processed at the following step or stored at -70° C.
50 μl (based on ligand) of [^3 H] angiotensin II (NEN, NET-446) and 10 μl of each of the test compounds with various concentrations were added to the buffer solution (50 mM Tris (pH 7.2), 5 mM MgCl2, 0.25% BSA) to adjust the final volume to be 0.5 ml. 100 μl of the receptor suspension was added thereto and the resulting solution was reacted for 60 minutes while stirring in a water bath at 25° C. 3 ml of cold buffer solution for analysis was added to cease the reaction. The isotope which was bound to the receptor was isolated from the resultant by using Brandel Cell Harvester System with Whatman glass fiber GF/C. After washing the filter, the radioactivity of the filter was determined by using a liquid scintillation counter. Binding inhibition(%) of the test compound was calculated as follows:
Binding Inhibition(%)=[{(T-B)-(S-B)}/(T-B)]×100
wherein T is the radioactivity (cpm) of the reaction product untreated with the test compound, S is the radioactivity (cpm) of the reaction product treated with the test compound, and B is the radioactivity (cpm) of blank test.

[5] = system: unanesthetized dogs; assay: Blood pressure variation with time in unanesthetized dogs; format: in vivo, dog; settings: 1.0 mg, oral
Experimental: as §4, §5
as §6, with “The test compound was suspended in Tween 80 and administered in an amount of 20 mg/kg orally.” left out

[6] = Metabolite analysis: enzyme digestion test with rat liver microsome, HPLC; format: in vitro ADME; settings: 100 μM, 1 hour at 37° C.; for metabolite from the enzymatic digestion: rat liver microsome, HPLC (FIG. 1)
Experimental: Enzyme digestion test was executed in order to detect the metabolite of the test compound in vivo.
500 μg of NADP^+, 11 U of glucose-6-phosphate dehydrogenase and 200 μg of rat liver microsome were added to 1 ml of 0.1M phosphate buffer (pH 7.4), and to the resulting solution was added glucose-6-phosphate to a concentration of 10 mM. The resultant was incubated for 1 minute at 37° C. and added with each of the present compound (Example 3) and the Merck compound to a concentration of 100 μM. The mixture was incubated for 1 hour at 37° C., and then was added with 2 ml of dichloromethan to cease the reaction. The resultant was extracted with dichloromethan and the extract was evaporated to obtain a residue. The reside was analyzed using HPLC after dissolving in a mobile phase of the HPLC.
Column: Nucleosil phenyl column (0.46×25 cm, 5 μM)
Mobile phase: acetonitrile (50 mM, pH 5.0; 35:65, v/v)
FIG. 1 is a HPLC chart showing the result of the enzyme digestion test of the Merck compound and the compound of Example 3.

[7] = system: renal hypertensive rats; assay: Duration of action in renal hypertensive rats; format: in vivo, Sprague-Dawley rat; settings: 3 mg/kg oral
From the text: as §1, §2, §3
The compound of Example 1 and the Merck compound were tested using the hypertensive rats of test 2(i). 3 mg/kg of each compound was administered orally and blood pressure lowering effect with time was determined to measure the duration of action of the compounds.

[8] = system: furosemide-administered dogs; assay: Duration of action in furosemide-administered dogs; format: in vivo, dog; settings: 0.3 mg oral
Experimental: as §4, §5
as §6, with “The test compound was suspended in Tween 80 and administered in an amount of 20 mg/kg orally.” left out
The compound of Example 1 and the Merck compound were administered orally to the furosemide-administrated dogs as in test 3(i), and blood pressure lowering effect was measured with time.

Binding Inhibition [4]: 86.4%
Structure (SMILES): CCCCc1nc2cc(-c3cccc[n+]3[O-])c(C)nc2n1Cc1ccc(-c2ccccc2-c2nn[nH]n2)cc1 [Example 3, 2-Butyl-5-methyl-6-(1-oxy-pyridin-2-yl)-3-[2'-(1H-tetrazol-5-yl)-biphenyl-4-ylmethyl]-3H-imidazo[4,5-b]pyridine]
Maximum Blood Pressure Lowering Effect ([1]; 1 mg/kg): -20% | Maximum Blood Pressure Lowering Effect [2]: -50% | Maximum Blood Pressure Lowering Effect ([3]; 0.1 mg/kg): -10% | Maximum Blood Pressure Lowering Effect ([3]; 0.3 mg/kg): -11% | Maximum Blood Pressure Lowering Effect ([3]; 1 mg/kg): -37% | Maximum Blood Pressure Lowering Effect ([5]; 0.5 hr): -16.2% | Maximum Blood Pressure Lowering Effect ([5]; 1 hr): -23.8% | Maximum Blood Pressure Lowering Effect ([5]; 2 hr): -30.0% | Maximum Blood Pressure Lowering Effect ([5]; 4 hr): -32.7% | Maximum Blood Pressure Lowering Effect ([5]; 6 hr): -35.5% | Maximum Blood Pressure Lowering Effect ([5]; 8 hr): -33.0% | stability against the enzymatic digestion ([6]; in contrast with the Merck compound): good stability against the enzymatic digestion | metabolite from the enzymatic digestion [6]: has no metabolite from the enzymatic digestion

metabolite from the enzymatic digestion [6]: has a metabolite
Structure (SMILES): CCc1nc2c(C)cc(C)nc2n1Cc1ccc(-c2ccccc2-c2nnn[nH]2)cc1 [Merck Compound, reference compound]
Maximum Blood Pressure Lowering Effect ([1]; 3 mg/kg): -40% | Maximum Blood Pressure Lowering Effect ([3]; 0.1 mg/kg): -20% | Maximum Blood Pressure Lowering Effect ([3]; 0.3 mg/kg): -24% | Maximum Blood Pressure Lowering Effect ([7]; 0 min): 0% | Maximum Blood Pressure Lowering Effect ([7]; 10 min): -15% | Maximum Blood Pressure Lowering Effect ([7]; 20 min): -27% | Maximum Blood Pressure Lowering Effect ([7]; 30 min): -28% | Maximum Blood Pressure Lowering Effect ([7]; 60 min): -26% | Maximum Blood Pressure Lowering Effect ([7]; 90 min): -28% | Maximum Blood Pressure Lowering Effect ([7]; 120 min): -25% | Maximum Blood Pressure Lowering Effect ([7]; 240 min): -40% | Maximum Blood Pressure Lowering Effect ([7]; 360 min): -36% | Maximum Blood Pressure Lowering Effect ([7]; 1320 min): -35% | Maximum Blood Pressure Lowering Effect ([7]; 1440 min): -40% | Maximum Blood Pressure Lowering Effect ([8]; 0 min): 0.0% | Maximum Blood Pressure Lowering Effect ([8]; 10 min): -5.0% | Maximum Blood Pressure Lowering Effect ([8]; 20 min): -12.2% | Maximum Blood Pressure Lowering Effect ([8]; 30 min): -14.4% | Maximum Blood Pressure Lowering Effect ([8]; 60 min): -20.1% | Maximum Blood Pressure Lowering Effect ([8]; 90 min): -24.4% | Maximum Blood Pressure Lowering Effect ([8]; 120 min): -19.1% | Maximum Blood Pressure Lowering Effect ([8]; 150 min): -24.2% | Maximum Blood Pressure Lowering Effect ([8]; 180 min): -18.9% | Maximum Blood Pressure Lowering Effect ([8]; 210 min): -17.0% | Maximum Blood Pressure Lowering Effect ([8]; 240 min): -17.0% | Maximum Blood Pressure Lowering Effect ([8]; 270 min): -13.4% | Maximum Blood Pressure Lowering Effect ([8]; 300 min): -14.9% | Maximum Blood Pressure Lowering Effect ([8]; 330 min): -15.6% | Maximum Blood Pressure Lowering Effect ([8]; 360 min): -15.6% | Maximum Blood Pressure Lowering Effect ([8]; 390 min): -11.4% | Maximum Blood Pressure Lowering Effect ([8]; 420 min): -10.7% | Maximum Blood Pressure Lowering Effect ([8]; 450 min): -11.4% | Maximum Blood Pressure Lowering Effect ([8]; 480 min): -13.8% | time for which the maximum blood pressure lowering effect lasted after the administration ([8]; Table 6, dogs): 2 to 3 h
